{
  "source": "patent US20250171403A1",
  "about": "(Synthon B.V., priority 2022, published 2025)",
  "origin": "cited, not measured here",
  "conditions": "qualitative, background statement",
  "data": [
    {"smiles": "COc1cc2nccc(Oc3ccc(NC(=O)C4(C(=O)Nc5ccc(F)cc5)CC4)cc3)c2cc1OC", "note": "[Cabozantinib, N-[4-(6,7-Dimethoxyquinolin-4-yloxy)phenyl]-N′-(4-fluorophenyl)cyclopropane-1,1-dicarboxamide]", "values": [
      {"measurement": "solubility (prior art, general statement)", "result": "poorly soluble"}
    ]}
  ]
}
